Type in all cases: biochemical
For test [1], the target named is T1, PIP4K2A (Homo sapiens, UniProt P48426).
T1 sequence (P48426 1-406): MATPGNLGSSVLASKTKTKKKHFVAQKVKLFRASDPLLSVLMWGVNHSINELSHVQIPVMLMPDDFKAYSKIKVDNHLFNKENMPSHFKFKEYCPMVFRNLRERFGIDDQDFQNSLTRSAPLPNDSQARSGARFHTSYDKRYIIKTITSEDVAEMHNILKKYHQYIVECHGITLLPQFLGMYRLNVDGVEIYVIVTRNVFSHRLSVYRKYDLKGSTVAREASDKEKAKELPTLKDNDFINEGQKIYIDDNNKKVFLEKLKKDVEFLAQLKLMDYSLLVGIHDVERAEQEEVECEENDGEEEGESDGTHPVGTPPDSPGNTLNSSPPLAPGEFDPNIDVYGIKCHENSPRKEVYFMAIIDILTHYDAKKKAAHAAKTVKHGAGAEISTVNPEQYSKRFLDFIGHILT
Kind of test: Kinase Assay PIP4K2 A (Table 2). Details: 4 nM PIP4K2A (full length protein, SignalChem); purchased SignalChem. The following applies: compounds listed under IC50 bins. In short, it runs like this:
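ADP-Glo luminescent read-out after 1 h room-temperature kinase reaction, started with 60 μM ATP solution following 15 min compound pre-incubation. Enzyme/substrate mix: 4 nM full-length PIP4K2A plus 100 μM PI(5)P diC8; buffer MOPS pH 7.2 with 25 mM MgCl2 and Tween 20. IC50 from 10-point, 3-fold titrations normalized to DMSO.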

A further test has as its target T2, PIP4K2B (Homo sapiens, UniProt P78356).
T2 construct: made in house; host or cells: E. coli
T2 sequence (P78356 1-416): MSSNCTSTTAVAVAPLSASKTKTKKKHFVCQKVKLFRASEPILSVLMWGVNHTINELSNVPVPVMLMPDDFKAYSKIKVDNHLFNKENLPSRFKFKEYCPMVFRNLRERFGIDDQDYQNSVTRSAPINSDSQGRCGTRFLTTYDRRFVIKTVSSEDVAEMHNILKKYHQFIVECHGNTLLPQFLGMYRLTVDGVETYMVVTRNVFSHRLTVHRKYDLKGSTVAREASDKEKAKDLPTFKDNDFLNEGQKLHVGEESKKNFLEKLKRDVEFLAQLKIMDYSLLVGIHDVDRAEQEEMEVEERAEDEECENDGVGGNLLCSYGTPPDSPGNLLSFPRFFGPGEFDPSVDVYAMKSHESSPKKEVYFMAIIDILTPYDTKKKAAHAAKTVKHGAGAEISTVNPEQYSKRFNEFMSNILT
Kind of test: Trans-FI P kinase assay PIP4K2B (Table 4). Particulars: compounds listed under IC50 bins; read-out: Trans-FI P kinase assays: PIP4K2B IC50. In outline:
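Transcreener FI detection (Ex 584/Em 623) of GDP, converted via calibration curve, gives IC50 from residual activity versus log concentration (highest 4.8 μM). Reaction: 80 μM PI5P plus DOPE carrier, 100 μM GTP, 5 nM GST-tagged enzyme, pH 7.3 HEPES with MgCl2 and 5% DMSO, 2 h after 1 h enzyme-compound preincubation at 27° C.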

Test [2] deals with T1, PIP4K2A. The experiment in a line: ADP-glo kinase assay PIP4K 2A (Table 3). Details: made in house; host or cells: E. coli. Particulars: compounds listed under IC50 bins. In outline:
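ADP-Glo luminescence detected ADP after 1 h RT reaction started by ATP (60 μM solution) on full-length PIP4K2A (4 nM in mix) and PI(5)P diC8 (100 μM in mix), preceded by 15 min enzyme-compound preincubation in MOPS pH 7.2/25 mM MgCl2. Percent inhibition versus DMSO over 10 concentrations fitted for IC50.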
On the technique in general: ADP-Glo turns the ADP formed in a reaction into a luminescent signal.

The results in this text go back to US11667651B2, “Aminopyridine derivatives as phosphatidylinositol phosphate kinase inhibitors” (HiberCell, Inc., priority 2017, dated 2023).

Structures are written as SMILES.

A word on the IC50: it is the concentration at which inhibition is half-maximal.

As for `CN(C)C(=O)c1ccc(-c2ccc(Nc3cnc4c(c3)N(C(=O)OC(C)(C)C)CCO4)nc2)cc1` [Example 45, tert-butyl 7-((5-(4-(dimethylcarbamoyl)phenyl)pyridin-2-yl)amino)-2,3-dihydro-1H-pyrido[2,3-b][1,4]oxazine-1-carboxylate], the IC50 at PIP4K2A [1] was in the range of 10 to 100 nM; on PIP4K2B, 10 to 100 nM; against PIP4K2A [2] it was 100 to 1000 nM.
As to `CN(C)C(=O)c1ccc(-c2ccc(Nc3cnc4c(c3)NCCO4)nc2)cc1` [Example 46, 4-(6-((2,3-dihydro-1H-pyrido[2,3-b][1,4]oxazin-7-yl)amino)pyridin-3-yl)-N,N-dimethylbenzamide], the half-maximal inhibitory concentration (IC50) was 10 to 100 nM at PIP4K2A [1], 10 to 100 nM at PIP4K2B and 100 to 1000 nM on PIP4K2A [2].
For `CN(C)C(=O)c1ccc(-c2ccc(Nc3cncc(OC(F)F)c3)nc2)cc1` [Example 49, 4-(6-((5-(difluoromethoxy)pyridin-3-yl)amino)pyridin-3-yl)-N,N-dimethylbenzamide], the IC50 against PIP4K2A [1] is 100 to 1000 nM; on PIP4K2B, above 1000 nM; on PIP4K2A [2] it was 100 to 1000 nM.
As for `CN(C)C(=O)c1ccc(-c2ccc(Nc3cnc4c(c3)OCCO4)nc2)cc1` [Example 50, 4-(6-((2,3-dihydro-[1,4]dioxino[2,3-b]pyridin-7-yl)amino)pyridin-3-yl)-N,N-dimethylbenzamide], the IC50 against PIP4K2A [1] is 10 to 100 nM; at PIP4K2B, 10 to 100 nM; against PIP4K2A [2] it was 100 to 1000 nM.
Turning to `CN(C)C(=O)c1ccc(-c2ccc(Nc3ccc(CCN4CCOCC4)nc3)nc2)cc1` [Example 51, N,N-dimethyl-4-(6-((6-(2-morpholinoethyl)pyridin-3-yl)amino)pyridin-3-yl)benzamide], the IC50 at PIP4K2A [1], at PIP4K2B and against PIP4K2A [2] was above 1000 nM throughout.
As for `CN(C)C(=O)c1ccc(-c2ccc(Nc3cnc4c(c3)CCCO4)nc2)cc1` [Example 58, 4-(6-((3,4-dihydro-2H-pyrano[2,3-b]pyridin-6-yl)amino)pyridin-3-yl)-N,N-dimethylbenzamide], the 50% inhibitory concentration (IC50) against PIP4K2A [1] fell in the range of 10 to 100 nM; at PIP4K2B, 10 to 100 nM; at PIP4K2A [2] it was 100 to 1000 nM.
For `CC(=O)N1CCN(C)c2ncc(Nc3ccc(-c4ccc(C(=O)N(C)C)cc4)cn3)cc21` [Example 59, 4-(6-((1-acetyl-4-methyl-1,2,3,4-tetrahydropyrido[2,3-b]pyrazin-7-yl)amino)pyridin-3-yl)-N,N-dimethylbenzamide], the IC50 fell in the range of 10 to 100 nM at PIP4K2A [1], 10 to 100 nM at PIP4K2B and 100 to 1000 nM against PIP4K2A [2].
Turning to `CN(C)C(=O)c1ccc(-c2ccc(Nc3ccc(N4CCOCC4)nc3)nc2)cc1` [Example 60, N,N-dimethyl-4-(6-((6-morpholinopyridin-3-yl)amino)pyridin-3-yl)benzamide], the half-maximal inhibitory concentration (IC50) at PIP4K2A [1], at PIP4K2B and against PIP4K2A [2] was above 1000 nM each time.
For `Cc1nc2ncc(Nc3ccc(-c4ccc(C(=O)N(C)C)cc4)cn3)cc2o1` [Example 61, N,N-dimethyl-4-(6-((2-methyloxazolo[4,5-b]pyridin-6-yl)amino)pyridin-3-yl)benzamide], the figures for the concentration for half-maximal inhibition (IC50) at PIP4K2A [1], at PIP4K2B and at PIP4K2A [2] were 100 to 1000 nM, above 1000 nM and 100 to 1000 nM, respectively.
With `CN(C)C(=O)c1ccc(-c2ccc(Nc3cnc4c(c3)OCO4)nc2)cc1` [Example 62, 4-(6-([1,3]dioxolo[4,5-b]pyridin-6-ylamino)pyridin-3-yl)-N,N-dimethylbenzamide], the concentration for half-maximal inhibition (IC50) was 100 to 1000 nM against PIP4K2A [1], above 1000 nM on PIP4K2B and 100 to 1000 nM against PIP4K2A [2].
`CN(Cc1cncs1)C(=O)c1ccc(-c2ccc(Nc3cccnc3)nc2)cc1` [Example 71, N-methyl-4-(6-(pyridin-3-ylamino)pyridin-3-yl)-N-(thiazol-5-ylmethyl)benzamide]: the IC50 at PIP4K2A [1], at PIP4K2B and at PIP4K2A [2] was above 1000 nM in each case.
As for `CN(C)C(=O)c1ccc(-c2ccc(Nc3cncc(N4CCN(Cc5ccccc5)C4=O)c3)nc2)cc1` [Example 73, 4-(6-((5-(3-benzyl-2-oxoimidazolidin-1-yl)pyridin-3-yl)amino)pyridin-3-yl)-N,N-dimethylbenzamide], the values for the half-inhibitory concentration (IC50) against PIP4K2A [1], on PIP4K2B and at PIP4K2A [2] were 1 to 10 nM, 10 to 100 nM and 1 to 10 nM, respectively.
For `C[C@@H](c1ccccc1)N1CCN(c2cncc(Nc3ccc(-c4ccc(C(=O)N(C)C)cc4)cn3)c2)C1=O` [Example 80, (S)—N,N-dimethyl-4-(6-((5-(2-oxo-3-(1-phenylethyl)imidazolidin-1-yl)pyridin-3-yl)amino)pyridin-3-yl)benzamide], the half-inhibitory concentration (IC50) against PIP4K2A [1], at PIP4K2B and against PIP4K2A [2] was 10 to 100 nM throughout.
Take `C[C@H](c1ccccc1)N1CCN(c2cncc(Nc3ccc(-c4ccc(C(=O)N(C)C)cc4)cn3)c2)C1=O` [Example 81, (R)—N,N-dimethyl-4-(6-((5-(2-oxo-3-(1-phenylethyl)imidazolidin-1-yl)pyridin-3-yl)amino)pyridin-3-yl)benzamide]: the IC50 on PIP4K2A [1] is at most 1 nM; at PIP4K2B, 10 to 100 nM; at PIP4K2A [2], 1 to 10 nM.
`O=C1CCCN1c1ccc(-c2ccc(Nc3cnc4c(c3)N3C(=O)CC[C@H]3CO4)nc2)cc1` [Example 84, (S)-2-((5-(4-(2-oxopyrrolidin-1-yl)phenyl)pyridin-2-yl)amino)-6,6a,7,8-tetrahydro-9H-pyrido[2,3-b]pyrrolo[1,2-d][1,4]oxazin-9-one]: the values for the IC50 on PIP4K2A [1], at PIP4K2B and against PIP4K2A [2] were 1 to 10 nM, 10 to 100 nM and 1 to 10 nM, respectively.
With `O=C1CCCN1c1ccc(-c2ccc(Nc3cnc4c(c3)N3C(=O)CC[C@@H]3CO4)nc2)cc1` [Example 85, (R)-2-((5-(4-(2-oxopyrrolidin-1-yl)phenyl)pyridin-2-yl)amino)-6,6a,7,8-tetrahydro-9H-pyrido[2,3-b]pyrrolo[1,2-d][1,4]oxazin-9-one], the half-maximal inhibitory concentration (IC50) on PIP4K2A [1] is 1 to 10 nM; at PIP4K2B it was 10 to 100 nM; on PIP4K2A [2], 10 to 100 nM.
For `CC(=O)N1CCOc2ncc(Nc3ccc(-c4ccc(N5CCCC5=O)cc4)cn3)cc21` [Example 86, 1-(4-(6-((1-acetyl-2,3-dihydro-1H-pyrido[2,3-b][1,4]oxazin-7-yl)amino)pyridin-3-yl)phenyl)pyrrolidin-2-one], the half-maximal inhibitory concentration (IC50) lay within 1 to 10 nM on PIP4K2A [1], 10 to 100 nM at PIP4K2B and 10 to 100 nM against PIP4K2A [2].
Consider `O=C1CCCN1c1ccc(-c2ccc(Nc3cnc4c(c3)OCCO4)nc2)cc1` [Example 87, 1-(4-(6-((2,3-dihydro-[1,4]dioxino[2,3-b]pyridin-7-yl)amino)pyridin-3-yl)phenyl)pyrrolidin-2-one], for which the values for the IC50 on PIP4K2A [1], on PIP4K2B and against PIP4K2A [2] were 10 to 100 nM, 10 to 100 nM and 100 to 1000 nM, respectively.
For `CN(C)C(=O)c1ccc(-c2ccc(Nc3cnc4c(c3)N(C(=O)CO)CCO4)nc2)cc1` [Example 89, 4-(6-((1-(2-hydroxyacetyl)-2,3-dihydro-1H-pyrido[2,3-b][1,4]oxazin-7-yl)amino)pyridin-3-yl)-N,N-dimethylbenzamide], the results for the half-inhibitory concentration (IC50) on PIP4K2A [1], at PIP4K2B and at PIP4K2A [2] were 1 to 10 nM, 10 to 100 nM and 10 to 100 nM, respectively.
Turning to `CN(C)C(=O)c1ccc(-c2ccc(Nc3cnc4c(c3)N(C(=O)c3ccccc3)CCO4)nc2)cc1` [Example 94, 4-(6-((1-benzoyl-2,3-dihydro-1H-pyrido[2,3-b][1,4]oxazin-7-yl)amino)pyridin-3-yl)-N,N-dimethylbenzamide], the IC50 was in the range of 1 to 10 nM on PIP4K2A [1], 10 to 100 nM on PIP4K2B and 10 to 100 nM at PIP4K2A [2].
